≈ marks a conversion by molar mass, not a printed value.
Assays:
Staphylococcus aureus [1] = assay: Antibacterial activity against fluoroquinolone-resistant Staphylococcus aureus 1095 infected in mouse assessed as survival compound administered 0.5 to 4 hrs post-infection measured after 7 days; assay type: functional; conditions: read-out: PD50
Streptococcus pyogenes [2] = assay: Antibacterial activity against Streptococcus pyogenes; assay type: functional
[3] = Clearance in rat at 2 mg/kg, iv and 5 mg/kg, po; assay type: ADME, organism-based; conditions: in vivo
Staphylococcus aureus [4] = assay: Antibacterial activity against Staphylococcus aureus; assay type: functional
Staphylococcus aureus [5] = assay: Antibacterial activity against fluoroquinolone-resistant Staphylococcus aureus harboring DNA gyrase D83N mutant; assay type: functional
Staphylococcus aureus [6] = assay: Antibacterial activity against fluoroquinolone-resistant Staphylococcus aureus harboring DNA gyrase M121K mutant; assay type: functional
Staphylococcus aureus [7] = assay: Antibacterial activity against fluoroquinolone-resistant Staphylococcus aureus 1095; assay type: functional
DNA gyrase = DNA gyrase (Staphylococcus aureus, UniProt P0A0K8+P20831); assay: Inhibition of Staphylococcus aureus DNA gyrase; assay type: protein-complex assay
[8] = Inhibition of Staphylococcus aureus DNA topoisomerase 4
[9] = Inhibition of human DNA topoisomerase 4
Staphylococcus aureus [10] = assay: Antibacterial activity against Staphylococcus aureus 1146; assay type: functional
[11] = target: Voltage-gated inwardly rectifying potassium channel KCNH2 (Homo sapiens, UniProt Q12809); assay: Inhibition of human ERG channel in HEK293 cells by voltage-gated patch clamp technique; assay type: cell-based
Voltage-gated inwardly rectifying potassium channel KCNH2, sequence (Q12809 whole entry): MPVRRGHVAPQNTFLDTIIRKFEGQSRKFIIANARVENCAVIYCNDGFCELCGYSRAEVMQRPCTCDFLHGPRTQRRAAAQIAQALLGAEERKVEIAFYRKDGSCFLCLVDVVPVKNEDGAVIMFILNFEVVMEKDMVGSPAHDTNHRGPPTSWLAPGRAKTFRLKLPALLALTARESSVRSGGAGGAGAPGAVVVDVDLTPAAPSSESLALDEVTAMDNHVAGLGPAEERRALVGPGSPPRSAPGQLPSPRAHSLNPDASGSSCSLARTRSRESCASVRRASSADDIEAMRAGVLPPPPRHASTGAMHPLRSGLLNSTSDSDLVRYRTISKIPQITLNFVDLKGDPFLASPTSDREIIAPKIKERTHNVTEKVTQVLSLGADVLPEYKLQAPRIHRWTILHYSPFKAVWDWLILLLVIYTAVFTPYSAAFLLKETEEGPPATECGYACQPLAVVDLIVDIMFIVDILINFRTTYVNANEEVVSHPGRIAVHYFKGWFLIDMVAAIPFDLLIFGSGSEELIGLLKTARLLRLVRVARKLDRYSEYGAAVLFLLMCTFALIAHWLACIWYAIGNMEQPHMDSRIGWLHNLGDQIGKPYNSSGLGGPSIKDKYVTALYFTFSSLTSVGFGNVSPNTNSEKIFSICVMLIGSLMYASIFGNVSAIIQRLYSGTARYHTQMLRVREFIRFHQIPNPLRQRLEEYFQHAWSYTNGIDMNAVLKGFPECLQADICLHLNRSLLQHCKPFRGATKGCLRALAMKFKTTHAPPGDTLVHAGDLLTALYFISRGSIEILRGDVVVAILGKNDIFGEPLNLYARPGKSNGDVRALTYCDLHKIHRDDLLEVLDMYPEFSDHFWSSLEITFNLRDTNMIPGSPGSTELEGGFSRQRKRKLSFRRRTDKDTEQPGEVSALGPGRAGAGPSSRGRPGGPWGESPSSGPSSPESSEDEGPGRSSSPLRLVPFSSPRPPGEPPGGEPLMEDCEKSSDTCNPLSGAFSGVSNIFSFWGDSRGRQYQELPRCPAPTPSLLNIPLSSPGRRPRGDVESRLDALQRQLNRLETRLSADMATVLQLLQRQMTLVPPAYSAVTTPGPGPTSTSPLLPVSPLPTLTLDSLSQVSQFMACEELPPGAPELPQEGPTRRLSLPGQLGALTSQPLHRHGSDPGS

[12] = Volume of distribution at steady state in rat at 2 mg/kg, iv and 5 mg/kg, po; assay type: ADME, organism-based; conditions: in vivo, read-out: Vdss
[13] = Oral bioavailability in rat at 5 mg/kg; assay type: ADME, organism-based; conditions: in vivo
[14] = Inhibition of Streptococcus pneumoniae topoisomerase 4
[15] = Inhibition of Streptococcus pneumoniae DNA gyrase
DNA gyrase subunit A [16] = target: DNA gyrase subunit A (Staphylococcus aureus, UniProt P20831, D83N); assay: Inhibition of Staphylococcus aureus DNA gyrase D83N mutant
DNA gyrase subunit A [17] = target: DNA gyrase subunit A (Staphylococcus aureus, UniProt P20831, M121K); assay: Inhibition of Staphylococcus aureus DNA gyrase M121K mutant
Streptococcus pyogenes [18] = assay: Antibacterial activity against Streptococcus pyogenes 02C0203 infected in mouse assessed as survival compound administered 0.5 to 4 hrs post-infection measured after 7 days; conditions: 02C0203, in Mus musculus, read-out: PD50

COc1ccc2ncc(F)c([C@@H](O)CC[C@@H]3CCN(CCSc4cccs4)C[C@@H]3C(=O)O)c2c1
ED50 (Staphylococcus aureus [1]): 22.1 mg/kg | MIC90 (Streptococcus pyogenes [2]): 0.25 µg/mL (≈ 0.495 µM) | clearance [3]: 32.7 mL/min/kg | MIC90 (Staphylococcus aureus [4]): 0.125 µg/mL (≈ 0.248 µM) | MIC (Staphylococcus aureus [5]): 32 µg/mL (≈ 63.4 µM) | MIC (Staphylococcus aureus [6]): 64 µg/mL (≈ 127 µM) | MIC (Staphylococcus aureus [7]): 0.125 µg/mL (≈ 0.248 µM) | IC50 (DNA gyrase): 1.56 µM | IC50 [8]: 30.4 µM | IC50 [9]: > 200 µM | MIC (Staphylococcus aureus [10]): ≤ 0.063 µg/mL | IC50 [11]: 23.6 µM | Vd [12]: 2.55 L/kg | bioavailability [13]: 31.5%

COc1ccc2nccc([C@@H](O)CC[C@@H]3CCN(C4CC(c5ccccc5)C4)C[C@@H]3C(=O)O)c2c1 (some centres not stated)
ED50 (Staphylococcus aureus [1]): 6.9 mg/kg | MIC90 (Streptococcus pyogenes [2]): 1 µg/mL (≈ 2.11 µM) | clearance [3]: 43.1 mL/min/kg | MIC90 (Staphylococcus aureus [4]): 0.25 µg/mL (≈ 0.527 µM) | MIC (Staphylococcus aureus [5]): ≥ 32 µg/mL | MIC (Staphylococcus aureus [6]): ≥ 64 µg/mL | MIC (Staphylococcus aureus [7]): 0.2 µg/mL (≈ 0.421 µM) | IC50 (DNA gyrase): 1.19 µM | IC50 [8]: 32.1 µM | IC50 [9]: > 200 µM | IC50 [14]: 8.37 µM | IC50 [15]: 8.84 µM | MIC (Staphylococcus aureus [10]): 0.09 µg/mL (≈ 0.19 µM) | IC50 (DNA gyrase subunit A [16]): > 200 µM | IC50 (DNA gyrase subunit A [17]): > 200 µM | IC50 [11]: 24.9 µM | ED50 (Streptococcus pyogenes [18]): 14.1 mg/kg | Vd [12]: 1.24 L/kg | bioavailability [13]: 27%

COc1ccc2nccc([C@@H](O)CC[C@@H]3CCN(C4CC(c5cc(F)ccc5F)C4)C[C@@H]3C(=O)O)c2c1 (some centres not stated)
ED50 (Staphylococcus aureus [1]): 28.2 mg/kg | MIC90 (Streptococcus pyogenes [2]): 1 µg/mL (≈ 1.96 µM) | clearance [3]: 43.9 mL/min/kg | MIC90 (Staphylococcus aureus [4]): 0.25 µg/mL (≈ 0.49 µM) | MIC (Staphylococcus aureus [5]): 10 µg/mL (≈ 19.6 µM) | MIC (Staphylococcus aureus [6]): 5.7 µg/mL (≈ 11.2 µM) | MIC (Staphylococcus aureus [7]): 0.5 µg/mL (≈ 0.979 µM) | IC50 (DNA gyrase): 3 µM | IC50 [8]: 9.62 µM | MIC (Staphylococcus aureus [10]): 0.25 µg/mL (≈ 0.49 µM) | IC50 [11]: 9.97 µM | ED50 (Streptococcus pyogenes [18]): 32.5 mg/kg | Vd [12]: 1.3 L/kg | bioavailability [13]: 47%

From ChEMBL document CHEMBL2380208, “Novel quinoline derivatives as inhibitors of bacterial DNA gyrase and topoisomerase IV” (Bioorg Med Chem Lett, 2013)
